Experimental data from patent publication US10815230B2, “Casein kinase 1 delta inhibitor” (ELECTROPHORETICS LIMITED, priority 2015, dated 2020).

What was measured:
Settings in all cases: read-out: % Ctrl @ 10000 nM
STK36 = STK36 (Homo sapiens, UniProt Q9NRP7); experiment: KINOMEscan binding assay
EPHB4 = EPHB4 (Homo sapiens, UniProt P54760); experiment: KINOMEscan binding assay
HUNK = HUNK (Homo sapiens, UniProt P57058); experiment: KINOMEscan binding assay
ULK1 = biological target: T1, ULK1 (Homo sapiens, UniProt O75385); experiment: KINOMEscan binding assay
T1 construct: purchased DiscoveRx (KINOMEscan, LeadHunter Discovery services)

PDGFRB = PDGFRB (Homo sapiens, UniProt P09619); experiment: KINOMEscan binding assay
MAP3K3 = MAP3K3 (Homo sapiens, UniProt Q99759); experiment: KINOMEscan binding assay
MEK6 = MEK6 (Homo sapiens, UniProt P52564); experiment: KINOMEscan binding assay
GSK3A = GSK3A (Homo sapiens, UniProt P49840); experiment: KINOMEscan binding assay
PLK1 = PLK1 (Homo sapiens, UniProt P53350); experiment: KINOMEscan binding assay
MTOR = MTOR (Homo sapiens, UniProt P42345); experiment: KINOMEscan binding assay
NEK1 = NEK1 (Homo sapiens, UniProt Q96PY6); experiment: KINOMEscan binding assay
NEK1, sequence (Q96PY6 whole entry): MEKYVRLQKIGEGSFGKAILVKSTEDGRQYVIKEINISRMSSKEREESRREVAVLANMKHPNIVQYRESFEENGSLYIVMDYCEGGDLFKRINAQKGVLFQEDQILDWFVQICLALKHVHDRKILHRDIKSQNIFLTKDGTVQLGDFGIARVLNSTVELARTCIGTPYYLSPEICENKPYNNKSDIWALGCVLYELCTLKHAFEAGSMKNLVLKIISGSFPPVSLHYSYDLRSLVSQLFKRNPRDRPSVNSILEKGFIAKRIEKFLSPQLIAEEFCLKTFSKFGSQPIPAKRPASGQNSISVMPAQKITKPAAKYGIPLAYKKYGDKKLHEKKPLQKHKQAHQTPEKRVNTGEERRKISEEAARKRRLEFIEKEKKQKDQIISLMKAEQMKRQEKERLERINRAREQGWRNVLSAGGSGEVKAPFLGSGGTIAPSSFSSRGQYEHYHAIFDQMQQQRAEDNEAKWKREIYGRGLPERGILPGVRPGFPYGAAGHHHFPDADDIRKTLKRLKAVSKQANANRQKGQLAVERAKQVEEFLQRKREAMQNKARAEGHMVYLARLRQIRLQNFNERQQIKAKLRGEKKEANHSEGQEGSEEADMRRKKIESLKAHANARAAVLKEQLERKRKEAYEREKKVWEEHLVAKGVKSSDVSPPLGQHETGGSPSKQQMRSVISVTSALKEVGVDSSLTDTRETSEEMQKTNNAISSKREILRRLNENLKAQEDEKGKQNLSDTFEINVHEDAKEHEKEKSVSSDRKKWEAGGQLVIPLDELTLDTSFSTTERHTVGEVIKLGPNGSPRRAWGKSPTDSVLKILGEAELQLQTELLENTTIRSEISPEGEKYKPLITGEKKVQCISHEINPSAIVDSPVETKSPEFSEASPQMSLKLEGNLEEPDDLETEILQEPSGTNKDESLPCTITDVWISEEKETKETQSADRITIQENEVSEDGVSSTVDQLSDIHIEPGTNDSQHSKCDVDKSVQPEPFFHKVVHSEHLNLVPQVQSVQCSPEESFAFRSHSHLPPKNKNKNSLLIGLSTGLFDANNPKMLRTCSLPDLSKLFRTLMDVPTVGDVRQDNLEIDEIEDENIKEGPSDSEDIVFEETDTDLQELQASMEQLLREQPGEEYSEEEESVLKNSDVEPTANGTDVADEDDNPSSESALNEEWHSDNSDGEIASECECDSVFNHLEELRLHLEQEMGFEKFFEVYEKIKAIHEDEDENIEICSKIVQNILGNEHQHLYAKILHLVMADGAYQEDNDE

PKNB M. tuberculosis = PKNB M. tuberculosis (Mycobacterium tuberculosis, UniProt P9WI81); experiment: biochemical; type: binding
TAK1 = TAK1 (Homo sapiens, UniProt O43318); experiment: KINOMEscan binding assay
TAK1, sequence (O43318 whole entry): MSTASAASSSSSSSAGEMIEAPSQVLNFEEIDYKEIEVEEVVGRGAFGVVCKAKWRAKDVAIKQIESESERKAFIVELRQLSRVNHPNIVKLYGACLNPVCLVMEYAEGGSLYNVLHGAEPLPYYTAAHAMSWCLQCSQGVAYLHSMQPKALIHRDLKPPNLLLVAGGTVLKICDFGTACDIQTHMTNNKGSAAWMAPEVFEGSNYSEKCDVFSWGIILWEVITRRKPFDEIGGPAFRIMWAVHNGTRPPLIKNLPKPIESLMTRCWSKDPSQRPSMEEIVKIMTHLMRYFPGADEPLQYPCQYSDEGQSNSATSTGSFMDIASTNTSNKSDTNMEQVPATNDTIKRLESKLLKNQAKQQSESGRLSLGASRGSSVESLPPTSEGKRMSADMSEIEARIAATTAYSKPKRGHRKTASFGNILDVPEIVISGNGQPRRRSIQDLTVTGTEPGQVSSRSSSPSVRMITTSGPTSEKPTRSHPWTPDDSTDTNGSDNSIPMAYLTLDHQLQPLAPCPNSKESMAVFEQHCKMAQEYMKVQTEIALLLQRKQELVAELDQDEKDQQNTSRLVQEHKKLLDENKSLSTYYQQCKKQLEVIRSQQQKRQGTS

WEE2 = biological target: T2, WEE2 (Homo sapiens, UniProt P0C1S8); experiment: KINOMEscan binding assay
T2 construct: purchased DiscoveRx (KINOMEscan, LeadHunter Discovery services)

FLT3 (R834Q) = FLT3 (R834Q) (Homo sapiens, UniProt P36888, R834Q); experiment: KINOMEscan binding assay
NEK4 = NEK4 (Homo sapiens, UniProt P51957); experiment: KINOMEscan binding assay
ASK1 = ASK1 (Homo sapiens, UniProt Q99683); experiment: KINOMEscan binding assay
BUB1 = BUB1 (Homo sapiens, UniProt O43683); experiment: KINOMEscan binding assay
SIK = SIK (Homo sapiens, UniProt P57059); experiment: KINOMEscan binding assay
PLK2 = PLK2 (Homo sapiens, UniProt Q9NYY3); experiment: KINOMEscan binding assay
TNIK = TNIK (Homo sapiens, UniProt Q9UKE5); experiment: KINOMEscan binding assay
[1] = biological target: ABL1 (Y253F) phosphorylated (Homo sapiens, UniProt P00519, Y253F); experiment: KINOMEscan binding assay
EPHA6 = EPHA6 (Homo sapiens, UniProt Q9UF33); experiment: KINOMEscan binding assay
CLK1 = CLK1 (Homo sapiens, UniProt P49759); experiment: KINOMEscan binding assay
FES = FES (Homo sapiens, UniProt P07332); experiment: KINOMEscan binding assay
WNK3 = biological target: T3, WNK3 (Homo sapiens, UniProt Q9BYP7); experiment: KINOMEscan binding assay
T3 construct: purchased DiscoveRx (KINOMEscan, LeadHunter Discovery services)

TXK = TXK (Homo sapiens, UniProt P42681); experiment: KINOMEscan binding assay
[2] = biological target: EGFR (L747-T751del, Sins) (Homo sapiens, UniProt P00533, DEL747-750/T751S); experiment: KINOMEscan binding assay
CLK3 = CLK3 (Homo sapiens, UniProt P49761); experiment: KINOMEscan binding assay
CLK3, sequence (P49761 whole entry): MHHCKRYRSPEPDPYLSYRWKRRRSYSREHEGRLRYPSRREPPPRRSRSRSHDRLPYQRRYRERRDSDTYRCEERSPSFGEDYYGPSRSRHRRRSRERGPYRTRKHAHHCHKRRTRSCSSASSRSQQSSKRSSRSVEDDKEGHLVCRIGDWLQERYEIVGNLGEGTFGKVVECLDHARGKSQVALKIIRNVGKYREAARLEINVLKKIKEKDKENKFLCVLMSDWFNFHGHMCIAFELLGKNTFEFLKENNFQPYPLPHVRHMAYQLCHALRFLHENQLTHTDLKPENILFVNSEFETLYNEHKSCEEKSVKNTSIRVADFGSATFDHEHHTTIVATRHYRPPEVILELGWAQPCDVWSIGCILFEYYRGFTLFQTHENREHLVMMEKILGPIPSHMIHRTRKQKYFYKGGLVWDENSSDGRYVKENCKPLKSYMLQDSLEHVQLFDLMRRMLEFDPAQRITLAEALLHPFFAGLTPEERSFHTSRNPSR

CDK5 = CDK5 (Homo sapiens, UniProt Q00535); experiment: KINOMEscan binding assay
CDK5, sequence (Q00535 whole entry): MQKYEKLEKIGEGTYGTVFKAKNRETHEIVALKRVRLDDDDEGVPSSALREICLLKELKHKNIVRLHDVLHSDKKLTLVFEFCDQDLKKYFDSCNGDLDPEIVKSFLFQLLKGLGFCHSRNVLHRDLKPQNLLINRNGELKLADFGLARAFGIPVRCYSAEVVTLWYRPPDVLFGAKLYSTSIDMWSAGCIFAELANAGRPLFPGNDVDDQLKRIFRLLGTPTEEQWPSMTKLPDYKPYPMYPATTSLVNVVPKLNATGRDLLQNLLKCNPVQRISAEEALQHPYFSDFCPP

EGFR E746-A750del = EGFR E746-A750del (Homo sapiens, UniProt P00533, DEL746-750); experiment: KINOMEscan binding assay
DCAMKL2 = DCAMKL2 (Homo sapiens, UniProt Q8N568); experiment: KINOMEscan binding assay
TEC = TEC (Homo sapiens, UniProt P42680); experiment: KINOMEscan binding assay
[3] = biological target: RPS6KA5 Kin.Dom.1-N-terminal (Homo sapiens, UniProt O75582); experiment: KINOMEscan binding assay
RPS6KA5 Kin.Dom.1-N-terminal, sequence (O75582 49-318 limits assumed): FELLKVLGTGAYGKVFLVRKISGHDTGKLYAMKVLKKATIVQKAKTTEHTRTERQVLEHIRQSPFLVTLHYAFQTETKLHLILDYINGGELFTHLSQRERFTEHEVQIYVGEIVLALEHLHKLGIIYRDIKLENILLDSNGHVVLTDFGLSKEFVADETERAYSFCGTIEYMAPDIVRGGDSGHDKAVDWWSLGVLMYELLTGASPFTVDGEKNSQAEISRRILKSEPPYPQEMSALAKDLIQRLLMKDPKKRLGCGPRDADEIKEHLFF

NEK5 = NEK5 (Homo sapiens, UniProt Q6P3R8); experiment: KINOMEscan binding assay
FAK = FAK (Homo sapiens, UniProt Q05397); experiment: KINOMEscan binding assay
PRKD3 = PRKD3 (Homo sapiens, UniProt O94806); experiment: KINOMEscan binding assay
KIT (V559D, V654A) = KIT (V559D, V654A) (Homo sapiens, UniProt P10721, V559D/V654A); experiment: KINOMEscan binding assay
KIT (V559D, V654A), sequence (P10721 26-976 V559D/V654A): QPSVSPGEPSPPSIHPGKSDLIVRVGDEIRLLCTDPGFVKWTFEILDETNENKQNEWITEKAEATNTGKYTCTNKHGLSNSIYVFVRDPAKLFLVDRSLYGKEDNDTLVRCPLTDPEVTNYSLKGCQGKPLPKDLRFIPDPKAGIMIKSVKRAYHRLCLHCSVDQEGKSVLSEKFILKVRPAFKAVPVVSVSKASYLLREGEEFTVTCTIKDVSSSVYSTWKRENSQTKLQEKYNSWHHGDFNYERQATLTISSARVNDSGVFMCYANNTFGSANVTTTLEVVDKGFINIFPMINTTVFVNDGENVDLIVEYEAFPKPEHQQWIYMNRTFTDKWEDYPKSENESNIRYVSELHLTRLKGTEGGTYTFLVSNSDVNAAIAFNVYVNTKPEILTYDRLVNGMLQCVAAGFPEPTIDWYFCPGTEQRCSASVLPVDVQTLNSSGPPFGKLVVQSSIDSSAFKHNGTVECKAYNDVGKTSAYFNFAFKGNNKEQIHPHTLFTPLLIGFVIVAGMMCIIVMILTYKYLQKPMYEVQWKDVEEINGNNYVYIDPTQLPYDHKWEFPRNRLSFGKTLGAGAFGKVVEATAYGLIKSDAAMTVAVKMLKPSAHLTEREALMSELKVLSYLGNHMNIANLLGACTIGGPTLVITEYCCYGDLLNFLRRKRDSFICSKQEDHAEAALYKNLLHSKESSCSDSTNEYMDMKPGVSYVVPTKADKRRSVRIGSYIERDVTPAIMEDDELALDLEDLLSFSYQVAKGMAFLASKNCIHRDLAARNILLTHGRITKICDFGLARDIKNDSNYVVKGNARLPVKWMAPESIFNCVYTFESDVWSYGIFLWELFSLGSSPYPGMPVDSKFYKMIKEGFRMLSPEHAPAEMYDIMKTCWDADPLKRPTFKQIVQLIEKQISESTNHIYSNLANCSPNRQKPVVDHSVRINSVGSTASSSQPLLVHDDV

BTK = BTK (Homo sapiens, UniProt Q06187); experiment: KINOMEscan binding assay
MAP3K15 = biological target: T4, MAP3K15 (Homo sapiens, UniProt Q6ZN16); experiment: KINOMEscan binding assay
T4 construct: T7 phage fusion (most assays) or DNA label after HEK293 expression; purchased DiscoveRx (KINOMEscan, LeadHunter Discovery services); host or cells: T7 phage in E. coli (BL21-derived) or HEK293

IGF1R = IGF1R (Homo sapiens, UniProt P08069); experiment: KINOMEscan binding assay

EPHB4, sequence (P54760 16-987): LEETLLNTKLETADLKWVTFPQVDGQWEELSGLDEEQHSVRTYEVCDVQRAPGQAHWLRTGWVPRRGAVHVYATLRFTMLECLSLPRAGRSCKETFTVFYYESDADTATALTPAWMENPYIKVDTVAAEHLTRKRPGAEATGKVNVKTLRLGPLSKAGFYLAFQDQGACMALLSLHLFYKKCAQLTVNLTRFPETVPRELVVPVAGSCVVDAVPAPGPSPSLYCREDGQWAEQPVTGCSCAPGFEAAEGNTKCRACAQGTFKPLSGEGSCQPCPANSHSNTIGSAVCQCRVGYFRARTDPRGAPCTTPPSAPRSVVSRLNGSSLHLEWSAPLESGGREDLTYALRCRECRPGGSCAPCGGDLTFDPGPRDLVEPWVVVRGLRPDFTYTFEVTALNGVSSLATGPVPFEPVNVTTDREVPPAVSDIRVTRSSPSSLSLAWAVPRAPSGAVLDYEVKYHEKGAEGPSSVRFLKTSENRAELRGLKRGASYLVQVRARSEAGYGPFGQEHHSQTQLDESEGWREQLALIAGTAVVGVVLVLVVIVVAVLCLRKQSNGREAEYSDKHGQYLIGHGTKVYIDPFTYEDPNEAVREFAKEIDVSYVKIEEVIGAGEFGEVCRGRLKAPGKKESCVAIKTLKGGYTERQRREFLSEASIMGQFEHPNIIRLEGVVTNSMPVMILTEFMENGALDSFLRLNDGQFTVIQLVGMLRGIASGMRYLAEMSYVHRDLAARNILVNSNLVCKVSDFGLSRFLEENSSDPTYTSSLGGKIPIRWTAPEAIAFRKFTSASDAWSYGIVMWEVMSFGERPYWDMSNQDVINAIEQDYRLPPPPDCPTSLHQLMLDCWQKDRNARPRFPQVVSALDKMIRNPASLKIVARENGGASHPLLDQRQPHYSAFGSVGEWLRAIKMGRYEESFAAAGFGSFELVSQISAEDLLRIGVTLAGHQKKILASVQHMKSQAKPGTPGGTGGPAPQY

Question: Which results are given for `Nc1ncc(-c2nc3ccccc3o2)c(-c2ccncc2)n1` [Comparative Compound 324, 5-(1,3-benzoxazol-2-yl)-4-(pyridine-4-yl)pyrimidin-2-amine]?
Answer: remaining binding at 10 µM (STK36): 96%; remaining binding at 10 µM (EPHB4): 100%; remaining binding at 10 µM (HUNK): 96%; remaining binding at 10 µM (ULK1): 93%; remaining binding at 10 µM (PDGFRB): 90%; remaining binding at 10 µM (MAP3K3): 76%; remaining binding at 10 µM (MEK6): 98%; remaining binding at 10 µM (GSK3A): 86%; remaining binding at 10 µM (PLK1): 90%; remaining binding at 10 µM (MTOR): 71%; remaining binding at 10 µM (NEK1): 100%; remaining activity at 10 µM (PKNB M. tuberculosis): 74%; remaining binding at 10 µM (TAK1): 81%; remaining binding at 10 µM (WEE2): 100%; remaining binding at 10 µM (FLT3 (R834Q)): 97%; remaining binding at 10 µM (NEK4): 89%; remaining binding at 10 µM (ASK1): 96%; remaining binding at 10 µM (BUB1): 44%; remaining binding at 10 µM (SIK): 100%; remaining binding at 10 µM (PLK2): 92%; remaining binding at 10 µM (TNIK): 78%; remaining binding at 10 µM [1]: 78%; remaining binding at 10 µM (EPHA6): 100%; remaining binding at 10 µM (CLK1): 80%; remaining binding at 10 µM (FES): 78%; remaining binding at 10 µM (WNK3): 89%; remaining binding at 10 µM (TXK): 93%; remaining binding at 10 µM [2]: 54%; remaining binding at 10 µM (CLK3): 99%; remaining binding at 10 µM (CDK5): 100%; remaining binding at 10 µM (EGFR E746-A750del): 80%; remaining binding at 10 µM (DCAMKL2): 99%; remaining binding at 10 µM (TEC): 94%; remaining binding at 10 µM [3]: 95%; remaining binding at 10 µM (NEK5): 100%; remaining binding at 10 µM (FAK): 99%; remaining binding at 10 µM (PRKD3): 91%; remaining binding at 10 µM (KIT (V559D, V654A)): 79%; remaining binding at 10 µM (BTK): 92%; remaining binding at 10 µM (MAP3K15): 100%; remaining binding at 10 µM (IGF1R): 100%

Question: With `CNc1c(C(N)=O)c2ccccn2c1C(=O)c1ccc(F)cc1` [Compound A, 2-methyl-amino-3-[(4-fluorophenyl)carbonyl]indolizine-1-carboxamide] as the compound, how does the remaining binding at 10 µM (STK36) read?
Answer: The remaining binding at 10 µM was 69%.

Question: And the remaining binding at 10 µM (EPHB4)?
Answer: The remaining binding at 10 µM was 54%.

Question: What about the remaining binding at 10 µM (HUNK) of the same compound?
Answer: The remaining binding at 10 µM was 79%.

Question: What about the remaining binding at 10 µM (ULK1) of the same compound?
Answer: Its remaining binding at 10 µM is 86%.

Question: What about the remaining binding at 10 µM (PDGFRB) of the same compound?
Answer: Its remaining binding at 10 µM is 45%.

Question: And the remaining binding at 10 µM (MAP3K3)?
Answer: Its remaining binding at 10 µM is 48%.

Question: What about the remaining binding at 10 µM (MEK6) of the same compound?
Answer: Its remaining binding at 10 µM is 73%.

Question: What about the remaining binding at 10 µM (GSK3A) of the same compound?
Answer: Its remaining binding at 10 µM is 56%.

Question: And the remaining binding at 10 µM (PLK1)?
Answer: The remaining binding at 10 µM was 82%.

Question: What about the remaining binding at 10 µM (MTOR) of the same compound?
Answer: The remaining binding at 10 µM was 96%.

Question: And the remaining binding at 10 µM (NEK1)?
Answer: Its remaining binding at 10 µM is 95%.

Question: What about the remaining activity at 10 µM (PKNB M. tuberculosis) of the same compound?
Answer: Its remaining activity at 10 µM is 86%.

Question: What about the remaining binding at 10 µM (TAK1) of the same compound?
Answer: Its remaining binding at 10 µM is 56%.

Question: What about the remaining binding at 10 µM (WEE2) of the same compound?
Answer: The remaining binding at 10 µM was 100%.

Question: What about the remaining binding at 10 µM (FLT3 (R834Q)) of the same compound?
Answer: The remaining binding at 10 µM was 95%.

Question: And the remaining binding at 10 µM (NEK4)?
Answer: Its remaining binding at 10 µM is 96%.

Question: And the remaining binding at 10 µM (ASK1)?
Answer: Its remaining binding at 10 µM is 87%.

Question: And the remaining binding at 10 µM (BUB1)?
Answer: The remaining binding at 10 µM was 44%.

Question: What about the remaining binding at 10 µM (SIK) of the same compound?
Answer: The remaining binding at 10 µM was 83%.

Question: What about the remaining binding at 10 µM (PLK2) of the same compound?
Answer: The remaining binding at 10 µM was 71%.

Question: And the remaining binding at 10 µM (TNIK)?
Answer: The remaining binding at 10 µM was 53%.

Question: What about the remaining binding at 10 µM [1] of the same compound?
Answer: Its remaining binding at 10 µM is 50%.

Question: And the remaining binding at 10 µM (EPHA6)?
Answer: The remaining binding at 10 µM was 96%.

Question: What about the remaining binding at 10 µM (CLK1) of the same compound?
Answer: The remaining binding at 10 µM was 67%.

Question: What about the remaining binding at 10 µM (FES) of the same compound?
Answer: Its remaining binding at 10 µM is 75%.

Question: What about the remaining binding at 10 µM (WNK3) of the same compound?
Answer: The remaining binding at 10 µM was 75%.

Question: What about the remaining binding at 10 µM (TXK) of the same compound?
Answer: Its remaining binding at 10 µM is 45%.

Question: What about the remaining binding at 10 µM [2] of the same compound?
Answer: Its remaining binding at 10 µM is 12%.

Question: And the remaining binding at 10 µM (CLK3)?
Answer: The remaining binding at 10 µM was 94%.

Question: What about the remaining binding at 10 µM (CDK5) of the same compound?
Answer: Its remaining binding at 10 µM is 81%.

Question: What about the remaining binding at 10 µM (EGFR E746-A750del) of the same compound?
Answer: Its remaining binding at 10 µM is 25%.

Question: What about the remaining binding at 10 µM (DCAMKL2) of the same compound?
Answer: The remaining binding at 10 µM was 82%.

Question: What about the remaining binding at 10 µM (TEC) of the same compound?
Answer: The remaining binding at 10 µM was 88%.

Question: What about the remaining binding at 10 µM [3] of the same compound?
Answer: Its remaining binding at 10 µM is 96%.

Question: What about the remaining binding at 10 µM (NEK5) of the same compound?
Answer: The remaining binding at 10 µM was 91%.

Question: And the remaining binding at 10 µM (FAK)?
Answer: The remaining binding at 10 µM was 92%.

Question: And the remaining binding at 10 µM (PRKD3)?
Answer: The remaining binding at 10 µM was 74%.

Question: What about the remaining binding at 10 µM (KIT (V559D, V654A)) of the same compound?
Answer: Its remaining binding at 10 µM is 16%.

Question: What about the remaining binding at 10 µM (BTK) of the same compound?
Answer: The remaining binding at 10 µM was 88%.

Question: What about the remaining binding at 10 µM (MAP3K15) of the same compound?
Answer: The remaining binding at 10 µM was 94%.

Question: And the remaining binding at 10 µM (IGF1R)?
Answer: The remaining binding at 10 µM was 99%.
